This note sets out measurements from patent publication US6337314B1, “Mammalian-derived peptides for the treatment of microbial infections” (Theragem, Inc., priority 1997, dated 2002).

Like-named read-outs stand apart in the source and are kept apart here. Marks after values point to notes of the source that are not given here. No end group written: not given here.

What all share (assay type): cell-based
Assay [1] relates to Pseudomonas aeroginosa PA01. The assay can be described thus: Radial diffusion assay for antibiotic activity against Pseudomonas aeroginosa PA01. The settings on record: Pseudomonas aeruginosa. Here is the method:
Staphylococcus aureus was strain RN6390, Pseudomonas aeruginosa was strain PA01, Escherichia coli was strain MC4100, Streptococcus faecalis was ATCC 8043 and Candida albicans was a clinical isolate from the Presbyterian Hospital. C. Radial diffusion assay for antibiotic activity against Pseudomonas aeroginosa PA01 A single colony of Pseudomonas aeroginosa PA01 is inoculated into trypticase soy broth and grown to mid-exponential phase (OD600−0.7). […] A 0.2 ml aliquot of this bacterial suspension (10^7CFU/ml) is added to 10 ml of autoclaved and cooled (to 42° C.) NaPB buffer, 1% w/v of low electroendosmosis type agarose (Sigma). After mixing the bacteria in, the agarose is poured in Lab-Tek square Petri dishes to form a uniform thick layer. Wells with a 2.7 mm diameter are punched in and filled with 4.5 ul of control or sample, the plates are incubated for 3 hours at 37° C., and overlaid with 10 ml of sterile agar maintained at 42° C. The overlay agar is 6% (w/v) TSB and 1% w/v Bacto-agar. After incubation for 18-24 hours at37° C., the diameter of the clear zone surrounding the wells containing an antibacterial agent is measured. Measurement of the antimicrobial activity of human hemoglobin, its heme-free α and β chains, CNBr-derived fragments of the α and β chains, and synthetic peptides derived therefrom were determined by radial diffusion assay and in some cases by plate assay. […] MIC is estimated by linear extrapolation of data points to an intercept with the x axis. Each assay was performed with 3 experimental runs except where indicated. The radial diffusion assay is reliable and gives consistent results when used with the purified or semipurified compositions of the invention. The assay method was patterned after that of Lee et al (23).

Assay [2] has as its system Escherichia coli MC4100. The source says:
(§1) Staphylococcus aureus was strain RN6390, Pseudomonas aeruginosa was strain PA01, Escherichia coli was strain MC4100, Streptococcus faecalis was ATCC 8043 and Candida albicans was a clinical isolate from the Presbyterian Hospital.
D. Radial diffusion assay for antibiotic activity against Escherichia coli MC4100
A single colony of Escherichia coli MC4100 is inoculated into trypicase soy broth and grown to mid-exponential phase (OD600−0.7). The cultures are washed in NaPB pH 5.5 and dissolved to a final concentration of 5×10^7CFU/ml. A 0.2 ml aliquot of this bacterial suspension (10^7CFU/ml) is added to 10 ml of autoclaved and cooled (to 42° C.) NaPB containing 0.02% Bovine Serum Albumin (BSA) and 0.02% Triton X100., 1% w/v of low electroendosmosis type agarose (Sigma). After mixing the bacteria in, the agarose is poured into Lab-Tek square Petri dishes to form a uniform thick layer. Wells with a 2.7 mm diameter are punched in and filled with 4.5 ul of control or sample, the plates are incubated for 3 hours at 37° C., and overlaid with 10 ml of sterile agar maintained at 42° C. The overlay agar is 6% (w/v) TSB and 1% w/v Bacto-agar. After incubation for 18-24 hours at 37° C., the diameter of the clear zone surrounding the wells containing an antibacterial agent is measured.
(§2) Measurement of the antimicrobial activity of human hemoglobin, its heme-free α and β chains, CNBr-derived fragments of the α and β chains, and synthetic peptides derived therefrom were determined by radial diffusion assay and in some cases by plate assay. […] MIC is estimated by linear extrapolation of data points to an intercept with the x axis.
(§3) Each assay was performed with 3 experimental runs except where indicated. […] The assay method was patterned after that of Lee et al (23).

Assay [3] deals with Streptococcus faecalis ATCC 8043. The assay can be described thus: Radial diffusion assay for antibiotic activity against Streptococcus faecalis ATCC 8043. Here is the method:
as §1
E. Radial diffusion assay for antibiotic activity against Streptococcus faecalis ATCC 8043
A single colony is inoculated in 10 mL of TSB overnight shaking at 37C. Approximately 0.3 ml is added to 10 mL fresh TSB and shaken at 37° C. This is allowed to grow to mid-log phase (OD600=0.6). The culture is washed 2× in NaPB pH 5.5 by spinning at 5000 rpm. for 10 min. OD is rechecked after washing to determine exact bacterial concentration. The washed bacteria are added at a concentration of 10^7/plate to the lower layer (NaPB pH 5.5/1% Low Electroendosmosis agarose). Dilutions of Hemoglobin dilutions in NaPB pH 5.5 are added to the plate, allowed to diffuse in the layer, and incubated in wet box at 37C for 3 hours. Following the incubation, 10 mL of nutrient medium, 6% TSB and 1% Bactoagar, is added as a top layer and plates are incubated in the wet box overnight at […].
as §2
Each assay was performed with 3 experimental runs except where indicated. The radial diffusion assay is reliable and gives consistent results when used with the purified or semipurified compositions of the invention. The assay method was patterned after that of Lee et al (23).

The subject of assay [4] is Escherichia coli MC4100. The settings on record: pH 7.4, radial diffusion.
Assay [5] deals with Candida albicans. As for the experimental part:
as §1
B. Radial diffusion assay
The fungus is grown for 3 hrs from an overnight culture in Sabouraud dextrose broth, centrifuged at 10,000 g for 10 min, washed twice in NaPB pH 5.5, and resuspended in NaPB (pH 5.5) at a final concentration of 4×10^7/ml. A 0.1 ml aliquot of this fungal suspension (4×10^6 CFU) is added to 10 ml of autoclaved and cooled to (42° C.) NaPB pH 5.5 containing 1% w/v of low electroendosmosis type agarose (Sigma). After mixing the fungus in, the agar is poured into Lab-Tek square Petri dishes to form a uniform 1 mm thick layer. Wells with a 3 mm diameter are punched in and filled with 5 μl of control or sample, the plates are incubated for 3 hrs at 37° C. and overlaid with 10 ml of sterile agar maintained at 42° C. The overlay agar is 2× Sabouraud agar. After incubation of 18-24 hrs at 37° C., the diameter of the clear zone surrounding the wells containing an antifungal agent is measured.
as §2, §3

Assay [6] concerns Staphylococcus aureus RN6390. The assay can be described thus: Radial diffusion assay for antibiotic activity against Staphylococcus aureus RN6390. The following applies: pH 5.5, radial diffusion. From the text: Staphylococcus aureus was strain RN6390, Pseudomonas aeruginosa was strain PA01, Escherichia coli was strain MC4100, Streptococcus faecalis was ATCC 8043 and Candida albicans was a clinical isolate from the Presbyterian Hospital. B. Radial diffusion assay for antibiotic activity against Staphylococcus aureus RN6390 A single colony of Staphylococcus aureus RN6390 is inoculated into CYGP broth and grown to mid-exponential phase (OD600=0.7). The cultures are washed in NaPB pH 5.5 and dissolved to a final concentration of 5×10^7 CFU/ml. A 0.2 ml aliquot of this bacterial suspension (10^7 CFU) is added to 10 ml of autoclaved and cooled (to 42° C.) NaPB buffer, 1% w/v of low electroendosmosis type agarose (Sigma). After mixing the bacteria in, the agarose is poured in Lab-Tek square Petri dishes to form a uniform thick layer. Wells with a 2.7 mm diameter are punched in and filled with 4.5 ul of control or sample, the plates are incubated for 3 hours at 37° C., and overlaid with 10 ml of sterile agar maintained at 42° C. The overlay agar is 2× CYGP broth and 1% w/v Bacto-agar. After incubation for 18-24 hours at 37° C., the diameter of the clear zone surrounding the wells containing an antibacterial agent is measured. Measurement of the antimicrobial activity of human hemoglobin, its heme-free α and β chains, CNBr-derived fragments of the α and β chains, and synthetic peptides derived therefrom were determined by radial diffusion assay and in some cases by plate assay. […] MIC is estimated by linear extrapolation of data points to an intercept with the x axis. Each assay was performed with 3 experimental runs except where indicated. The radial diffusion assay is reliable and gives consistent results when used with the purified or semipurified compositions of the invention. The assay method was patterned after that of Lee et al (23).

Where [7] appears, read: Escherichia coli, pH 5.5, radial diffusion.
Where [8] appears, read: Streptococcus faecalis, pH 5.5, radial diffusion.
Where [9] appears, read: Candida albicans, pH 5.5, radial diffusion.
[10] abbreviates: Escherichia coli, Table 2 CNBr cleavage products, pH not given in table (method NaPB pH 5.5).
Where [11] appears, read: Streptacoccus faecalis, Table 2 CNBr cleavage products, pH not given in table (method NaPB pH 5.5).
Setting [12] is: Candida albicans, Table 2 CNBr cleavage products, pH not given in table (method NaPB pH 5.5).

Take “β chains: Heme-free β chain of human hemoglobin, 146 amino acid residues, SEQ ID NO:1, separated by C4 reverse-phase HPLC”: the “Minimum Inhibitory Concentration (MIC)” value is 40 to 60 µg/mL in assay [1] (pH 5.5, radial diffusion); 1.5 to 5 µg/mL in assay [2] (setting [7]); 20 µg/mL in assay [3] (setting [8]); 10 to 30 µg/mL in assay [4]; above 50 µg/mL in assay [5] (setting [9]); 10 µg/mL in assay [6].

Take “β-1: CNBr cleavage fragment of human hemoglobin β chain, residues 1-55, SEQ ID NO:9”: the “Minimum Inhibitory Concentration (MIC)” value is above 100 µg/mL in assay [2] (setting [10]), above 50 µg/mL in assay [3] (setting [11]) and 25 µg/mL in assay [5] (setting [12]).

As to “α-1: CNBr cleavage fragment of human hemoglobin α chain, residues 1-32, SEQ ID NO:7”, the “Minimum Inhibitory Concentration (MIC)” value is above 100 µg/mL in assay [2] (setting [10]) and 100 µg/mL in assay [3] (setting [11]).

In the case of “α-3: CNBr cleavage fragment of human hemoglobin α chain, residues 77-141, SEQ ID NO:3”, the results for the “Minimum Inhibitory Concentration (MIC)” value in assay [2] (setting [10]), in assay [3] (setting [11]) and in assay [5] (setting [12]) were 5 to 8 µg/mL, 7 µg/mL and 10 to 50 µg/mL, respectively.

With GNPKVKAHGKKVLGAFS [Peptide I], the “Minimum Inhibitory Concentration (MIC)” value was determined as 15 µg/mL in assay [2] (MC4100, pH 5.5) and 10 µg/mL in assay [5] (3 h, pH 5.5).

For “β-2: CNBr cleavage fragment of human hemoglobin β chain, residues 56-146, SEQ ID NO:2”, in assay [2] (E. coli), the “activity against E. coli (in words)” value is recorded as “highly active”. For the same substance, the entries for the “Minimum Inhibitory Concentration (MIC)” value in assay [2] (setting [10]), in assay [3] (setting [11]) and in assay [5] (setting [12]) were 5 µg/mL, 8 µg/mL and 25 µg/mL, respectively. Also, in assay [5] (C. albicans), the “activity against C. albicans (in words)” value is “highly active”.

With “Hemoglobin: Human hemoglobin (MW=64,500), two α and two β chains with four heme groups; crude Hb purchased from Sigma Chemicals”, the “Minimum Inhibitory Concentration (MIC)” value in assay [1] (pH 5.5, radial diffusion) was 5 µg/mL; in assay [1] (pH 7.4, radial diffusion), 50 µg/mL; in assay [2] (setting [7]) it was 1 to 5 µg/mL; in assay [3] (setting [8]) it was 200 to 1000 µg/mL; in assay [4] it was 35 to 100 µg/mL; in assay [5] (setting [9]) it was 50 to 70 µg/mL. In addition, in assay [6], the “Minimum Inhibitory Concentration (MIC)” value was 4 to 6 µg/mL.

Take “α chains: Heme-free α chain of human hemoglobin, 141 amino acid residues, SEQ ID NO:10, separated by C4 reverse-phase HPLC”: the “Minimum Inhibitory Concentration (MIC)” value is 50 µg/mL in assay [1] (pH 5.5, radial diffusion); 1 to 2 µg/mL in assay [2] (setting [7]); 3* μg/ml in assay [3] (setting [8]); 7 µg/mL in assay [5] (setting [9]); 300 µg/mL in assay [6].

Take “α-2: CNBr cleavage fragment of human hemoglobin α chain, residues 33-76, SEQ ID NO:8”: the “Minimum Inhibitory Concentration (MIC)” value in assay [2] (setting [10]) is above 100 µg/mL.
